Entries after “also recorded” stand apart in the source; their conditions may differ.
What was measured:
[1] = GSH consumption assay (LC/MS); conditions: for reactivity towards GSH relative to chloroacetamide (1a): 5 mM GSH, 200 μM electrophile, pH 8, 14 °C; for covalent bond formation with GSH: assay conditions or temperatures up to 37 °C for 24 h
Protocol: A sample from the reaction mixture was injected to an LC/MS every hour, and we quantified the decrease in starting material over the course of the reaction.
All solvents were bubbled with argon. Reaction mixtures were kept at 10 °C. Every 1 h, 5 μL from the reaction mixture were injected into the LC/MS. The reaction was followed by the peak area of the electrophile normalized by the area of the 4-nitrocyano benzene (i.e., by the disappearance of the starting material). The natural logarithm of the results was fitted to linear regression, and t1/2 was calculated as t1/2 = ln 2/–slope.

[2] = Glutamic acid reactivity of model compounds (LC/MS); conditions: pH 8, 37 °C; 4 days
BTK [3] = target: T1, BTK (Homo sapiens, UniProt Q06187); experiment: In vitro kinase activity assay (Nanosyn); conditions: for BTK inhibition (in words): 0.5 nM BTK, 5 μM ATP
Target sequence in this assay (Q06187 whole entry): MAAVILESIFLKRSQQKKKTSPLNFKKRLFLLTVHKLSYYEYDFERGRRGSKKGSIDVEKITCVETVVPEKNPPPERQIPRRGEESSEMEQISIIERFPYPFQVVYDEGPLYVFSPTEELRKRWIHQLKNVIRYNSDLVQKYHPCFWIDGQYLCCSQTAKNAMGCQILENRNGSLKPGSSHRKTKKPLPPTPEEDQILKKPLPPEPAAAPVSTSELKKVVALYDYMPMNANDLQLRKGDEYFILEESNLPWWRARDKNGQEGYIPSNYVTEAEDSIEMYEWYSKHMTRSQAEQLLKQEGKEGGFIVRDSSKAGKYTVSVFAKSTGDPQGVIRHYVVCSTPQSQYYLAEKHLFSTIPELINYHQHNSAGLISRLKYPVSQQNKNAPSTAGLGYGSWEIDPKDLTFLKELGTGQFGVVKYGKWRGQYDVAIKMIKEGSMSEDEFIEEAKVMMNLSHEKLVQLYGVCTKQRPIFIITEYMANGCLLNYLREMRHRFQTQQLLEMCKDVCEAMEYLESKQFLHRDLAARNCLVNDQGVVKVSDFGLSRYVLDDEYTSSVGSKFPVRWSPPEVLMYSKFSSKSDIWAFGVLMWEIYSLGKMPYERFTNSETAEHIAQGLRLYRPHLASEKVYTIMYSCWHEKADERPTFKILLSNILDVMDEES

BTK [4] = target: T1, BTK; experiment: BTK activity (autophosphorylation) in Mino cells, Western blot; format: cell-based; design: endogenous in cells; host or cells: Mino cells
Protocol: To assess the cellular efficacy of these compounds, we followed the inhibition of BTK autophosphorylation in Mino cells. After 1 h of pre-incubation with the inhibitors and B-cell activation with an anti-IgM antibody, BTK autophosphorylation was followed by Western blot.
The cell pellets were subjected to immunoblotting, and Western blots were performed for p-BTK, BTK, and β-actin.
Cell pellets were washed with ice-cold PBS and lysed using RIPA buffer (Sigma, R0278). […] Samples containing 50 μg total protein were prepared with 4× LDS sample buffer (NuPAGE, Thermo Scientific, NP0007) and 20 mM DTT, which were then resolved on a 4–20% Bis–Tris gel (GeneScript SurePAGE, M00657). […] An EZ-ECL Kit (Biological Industries, 20-500-1000) was used to detect HRP activity.
Target sequence in this assay (Q06187 whole entry): as above

BTK [5] = target: T1, BTK; experiment: Intact protein mass spectrometry labeling of recombinant BTK; format: binding; design: BTK kinase domain was expressed and purified as previously reported; made in house; conditions: 2 μM BTK, 2 μM compound, pH 8, 25 °C
Protocol: BTK kinase domain was expressed and purified as previously reported.[66] Binding experiments were performed in Tris 20 mM (pH 8.0) and 50 mM NaCl at room temperature.
(§1) The reaction mixtures, at room temperature for various times, were injected into the LC/MS. For data analysis, the raw spectra were deconvoluted using a 20,000:40,000 Da (For Pin1, 10,000:30,000) window and 1 Da resolution. The labeling percentage for a compound was determined as the labeling of a specific compound (alone or together with other compounds) divided by the overall detected protein species.
Target sequence in this assay (Q06187 402-655 limits assumed): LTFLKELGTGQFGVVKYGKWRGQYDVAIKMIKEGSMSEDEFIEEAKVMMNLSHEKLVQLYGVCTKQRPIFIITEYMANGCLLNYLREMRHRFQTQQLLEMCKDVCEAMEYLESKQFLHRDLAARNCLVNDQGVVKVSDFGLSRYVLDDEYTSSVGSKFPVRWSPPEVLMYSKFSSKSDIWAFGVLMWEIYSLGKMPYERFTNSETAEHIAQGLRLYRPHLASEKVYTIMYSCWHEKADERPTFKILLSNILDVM

Buffer stability assay = format: physicochemical
Protocol: Reaction mixtures were kept at 37 °C with shaking. After 4 days (unless otherwise mentioned), 5 μL from the reaction mixture were injected into the LC/MS to check the stability of the compounds.

Pin1 = target: T2, Pin1 (Homo sapiens, UniProt Q13526); experiment: Intact protein MS labeling of Pin1; format: binding; conditions: 2 μM Pin1, 2 μM compound, pH 7.5, 1 h, 25 °C
T2 construct: The catalytic domain of Pin1 (2 μM) in […] and 75 mM NaCl (pH 7.5) was incubated; made in house
T2 sequence (Q13526 52-163 limits assumed): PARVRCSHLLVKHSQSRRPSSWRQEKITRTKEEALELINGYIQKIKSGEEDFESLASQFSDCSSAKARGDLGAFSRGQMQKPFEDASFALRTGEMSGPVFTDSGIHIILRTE
Protocol: Initially, we incubated these compounds (4a–4g; 2 μM) with Pin1 (2 μM; 50 mM Tris buffer; pH 7.5, 1 h; 25 °C) to check covalent labeling by intact protein MS (Figure 5B,C; Figure S23). Under these conditions, sulfopin labeled 59% as previously reported;[38] the sulfonate (4a) labeled 18%, whereas alkyl sulfamates (4b and 4c) labeled 16 and 56%, respectively. […] We have previously reported that replacing the tert-butyl group in sulfopin by a cyclohexyl increases the labeling along with intrinsic thiol reactivity. Compound 4g contains a cyclohexyl group instead of the tert-butyl and a phenyl sulfamate electrophile and was able to label >95% of Pin1 under these conditions.
Pin1 was expressed and purified as previously reported.[38] The catalytic domain of Pin1 (2 μM) in […] and 75 mM NaCl (pH 7.5) was incubated with 2 μM sulfopin sulfamate (4a–4g) for 1 h at 25 °C.
as §1

[6] = DTNB thiol reactivity assay; format: physicochemical
Protocol: The compound 5,5′-dithio-bis(2-nitrobenzoic acid) (DTNB; 50 μM) was incubated with 200 μM tris(2-carboxyethyl)phosphine (TCEP) in 20 mM sodium phosphate buffer (pH 7.4) and 150 mM NaCl for 5 min at room temperature to obtain TNB^–2. […] UV absorbance was acquired every 15 min for 7 h. The assay was performed in a 384-well plate using a Tecan Spark 10 M plate reader. […] Compounds were measured in triplicate. The data were fitted to a second-order reaction equation such that the rate constant (K) is the slope of ln([A][B0]/[B][A0]), where [A0] and [B0] are the initial concentrations of the compound (200 μM) and TNB^–2 (100 μM), respectively, and [A] and [B] are the remaining concentrations as a function of time as deduced from spectrometric measurements. Linear regression using Prism was performed to fit the rate against the first 7 h of measurements.

[7] = Metabolic stability of sulfopin analogues in liver microsomes; format: in vitro ADME
Protocol: Next, we examined the buffer stability of the sulfopin sulfamate acetamides in PBS buffer (pH 8; 37 °C). Similar to the model compounds, the chloroacetamide (sulfopin) and sulfonate (4a) warheads show 30 and 15% hydrolysis after 2 days, respectively (Figure S26).
Figure S27: Sulfopin sulfamates show high metabolic stability: Compounds (Sulfopin, 4d, and 4g) were incubated
in liver microsomes and injected to LC/MS/MS at indicated time points. The peak intensities of the compounds were […]

For CNS(=O)(=O)OCC(=O)NCc1ccccc1 [1d], the “reactivity towards GSH relative to chloroacetamide (1a)” value [1] was “an order of magnitude less reactivity” and the “reaction with glutamic acid” value [2] was “did not react”.

For O=C(COS(=O)(=O)NCc1ccccc1)NCc1ccccc1 [1e], the “reactivity towards GSH relative to chloroacetamide (1a)” value [1] was “an order of magnitude less reactivity” and the “reaction with glutamic acid” value [2] was “did not react”.

With CS(=O)(=O)CC(=O)NCc1ccccc1 [1i] the “covalent bond formation with GSH” value [1] was “did not form a covalent bond with GSH”.

In the case of O=C(CS(=O)(=O)c1ccccc1)NCc1ccccc1 [1j], the “covalent bond formation with GSH” value [1] is reported as “did not form a covalent bond with GSH”.

With Nc1ncnc2c1c(-c1ccc(Oc3ccccc3)cc1)nn2[C@@H]1CCCN(C(=O)CCl)C1 [3a] the “BTK inhibition (in words)” value (BTK [3]) was “potent BTK inhibition” and the “less potency in cellular pBTK inhibition” value (BTK [4]) was 20 fold.

For CS(=O)(=O)OCC(=O)N1CCC[C@@H](n2nc(-c3ccc(Oc4ccccc4)cc3)c3c(N)ncnc32)C1 [3b], the “BTK inhibition (in words)” value (BTK [3]) was “potent BTK inhibition”, the “labeling of BTK” value (BTK [5]; within 10 min) was “more than 95%” and the IC50 (BTK [4]; anti-IgM activation, Western blot normalized to β-actin) was 6 nM.

Compound Nc1ncnc2c1c(-c1ccc(Oc3ccccc3)cc1)nn2[C@@H]1CCCN(C(=O)COS(=O)(=O)Nc2ccccc2)C1 [3e] has an IC50 (BTK [3]) of 100 nM.

With CS(=O)(=O)CC(=O)N1CCC[C@@H](n2nc(-c3ccc(Oc4ccccc4)cc3)c3c(N)ncnc32)C1 [3f] the “covalent reaction with BTK” value (BTK [5]) was “no labeling; also recorded: failed to react covalently with BTK”.

For Nc1ncnc2c1c(-c1ccc(Oc3ccccc3)cc1)nn2[C@@H]1CCCN(C(=O)CS(=O)(=O)c2ccccc2)C1 [3g], the IC50 (BTK [3]) was 500 nM and the “covalent reaction with BTK” value (BTK [5]) was “no labeling; also recorded: failed to react covalently with BTK”.

For CC(C)(C)CN(C(=O)COS(C)(=O)=O)C1CCS(=O)(=O)C1 (stereo not drawn) [4a], the “hydrolysis (buffer stability, sulfopin analogues)” value (Buffer stability assay; 200 μM, PBS buffer pH 8, 37 °C for four days) was 15%, the “hydrolysis (buffer stability, sulfopin analogues)” value (Buffer stability assay; PBS buffer pH 8, 37 °C, after 2 days) was 15% and the “labeling of Pin1” value (Pin1) was 18%.

In the case of CNS(=O)(=O)OCC(=O)N(CC(C)(C)C)C1CCS(=O)(=O)C1 (stereo not drawn) [4b], the “labeling of Pin1” value (Pin1) is reported as 16%.

In the case of CC(C)(C)CN(C(=O)COS(=O)(=O)NCc1ccccc1)C1CCS(=O)(=O)C1 (stereo not drawn) [4c], the “thiol reactivity compared to sulfopin” value [6] is reported as “lower thiol reactivity than sulfopin” and the “labeling of Pin1” value (Pin1) is reported as 56%.

With CC(C)(C)CN(C(=O)COS(=O)(=O)Nc1ccc(Br)cc1)C1CCS(=O)(=O)C1 (stereo not drawn) [4e] the “thiol reactivity compared to sulfopin” value [6] was “lower thiol reactivity than sulfopin” and the “labeling of Pin1” value (Pin1) was greater than 90%.

With Cc1ccc(NS(=O)(=O)OCC(=O)N(CC(C)(C)C)C2CCS(=O)(=O)C2)cc1 (stereo not drawn) [4f] the “labeling of Pin1” value (Pin1) was “less than 30%”.

For O=C(COS(=O)(=O)Nc1ccccc1)N(CC1CCCCC1)C1CCS(=O)(=O)C1 (stereo not drawn) [4g], the “thiol reactivity compared to sulfopin” value [6] was “slightly higher reactivity”, the “metabolic stability (in words)” value [7] was “good metabolic stability” and the “labeling of Pin1” value (Pin1) was greater than 95%.
